# Test results reported in patent publication US12065622B2, “Ammonium-based ionic liquid and its use as a lubricant additive” (TOTALENERGIES ONETECH, priority 2020, dated 2024).
# Assay: Base number (TBN) according to ASTM D2896
# Assay type: physicochemical
# Conditions: neat ionic liquid
# Experimental: An oil's neutralization capacity is measured by its BN or Base Number, characterized by its basicity. It is measured according to standard ASTM D-2896 and is expressed as an equivalent in milligrams of potash per gram of oil (also called “mg of KOH/g” or “BN point”). The BN is a standard criterion making it possible to adjust the basicity of the cylinder oils to the sulphur content of the fuel oil used, in order to be able to neutralize all of the sulphur contained in the fuel, and capable of being converted to sulphuric acid by combustion and hydrolysis.
substance,measurement,value
Tri-n-Octylmethylammonium 2-Ethylhexanoate [IL1],base number,114 mg KOH/g
